Assay results as given in patent US10307401B2, “Compositions and methods for treatment of prostate cancer” (priority 2016, dated 2019).

Legend:
[1] = tested on: KLK3 and HOMER2 expression in LREX′ cells; experiment: Gene expression analysis (qRT-PCR) of genes co-regulated by AR and GR in LREX′ cells; assay type: cell-based
Description: (§1) LNCaP/AR and LREX′ cells were cultured for 72 hours after plating in phenol-red free RPMI 1640 (10% CT-FBS) in six well plates at 40,000 and 50,000 cells/mL, respectively. LNCaP/AR cells were treated with 10 μM ARE-1, bicalutamide (bic), or enzalutamide (enz, Aurum Pharmatech) for an additional 48, 2, and 2 hours, respectively, prior to treatment with 1 nM DHT or ethanol for 16 hours. LREX′ cells were treated with 10 μM ARE-1 for 16 hours prior to induction with 1 nM DHT or 100 nM dexamethasone (dex) for 8 hours. RNA extraction (RNEasy columns, Qiagen), cDNA generation (Transcriptor First Strand cDNA kit, Roche), and qRT-PCR (SYBR Green Master Mix, Applied Biosystems, ABI7300 instrument) were as described (10-12). Expression was normalized to β-glucuronidase.

LNCaP cells = experiment: RNAseq GSEA (Hallmark pathways) in LNCaP cells; assay type: cell-based, human; settings: LNCaP ARE-1/NT
[2] = Circulation study of ARE-1 in C57BL6/J mice; assay type: in vivo
Description: (§2) Animal experiments were performed at Caltech under IACUC approval. VCaP and LREX′ cells were engrafted as 1:1 mixtures of 3×10^6 cells in Matrigel (BD Biosciences) into flanks of intact and castrated male SCID mice (Charles River), respectively. LREX′ engrafted mice received 10 mg/kg enz (oral gavage) daily. Once tumors were 100 mm^3 (0.5*l*w*w), ARE-1 was administered subcutaneously to opposing flanks in 20% DMSO:saline. For circulation studies, four C57BL6/J animals were injected subcutaneously with ARE-1 at 30 mg/kg and blood collected retroorbitally. Plasma concentrations of ARE-1 were analyzed by HPLC, area under the curve (AUC) approximated by the linear trapezoidal method, as described (12).
(§3) Cell culture experiments represent ≥3 independent biological replicates. Sequencing analyses were duplicates for cell culture and quadruplicates for tumor samples. For xenografts, animals were randomly assigned to groups. For circulation experiments, concentrations of ARE-1 were duplicate measurements. Measurements in cell culture, animal, and immunohistochemistry experiments were assessed by Student's t-test.

[3] = tested on: hormone sensitive LNCaP xenografts; settings: previously shown, cited from earlier work
[4] = tested on: KLK3 mRNA in LNCaP/AR cells; experiment: Gene expression analysis (qRT-PCR) in LNCaP/AR cells; assay type: cell-based; settings: 10 μM; for agonist activity (KLK3 mRNA): androgen-depleted conditions
Description: as §1

LNCaP/AR cells = experiment: Cytotoxicity / proliferation in LNCaP/AR cells (WST-1, CellTiter-Glo); assay type: cell-based; settings: 72 hours, compared with bicalutamide
Text: (§4) The LREX′ and LNCaP/AR cell lines were gifts from Charles Sawyers (Memorial Sloan Kettering) and received in 2014 and 2007, respectively. The VCaP cell line was a gift from Kenneth Pienta (University of Michigan Medical School) and received in 2012. Cells were maintained as previously described (5, 10-13), and were used within 10 passages from thawing. Cells were validated to parental cell lines by STR profile at IDEXXX Bioresearch following experimentation and confirmed to be Mycoplasma free. WST-1 assay (Roche) was used to measure cytotoxicity. The CellTiter-Glo assay was also used in some experiments and is described when used. Long-term toxicity in VCaP cells was assayed by cell counting.

VCaP cells = experiment: Cytotoxicity and long-term viability (cell counting) in VCaP cells; assay type: cell-based
Text: as §4

LREX′ tumors = experiment: RNAseq GSEA of LREX′ tumor expression profiles; assay type: in vivo, mice; settings: gene ontology
Description: (§5) LREX′ cells were plated at 50,000 cells/mL in 10 cm^2 dishes, treated with or without 10 μM of ARE-1 in fresh media, incubated 16 hours, and induced with 1 nM DHT for 8 hours. Tumor samples were homogenized mechanically. Total RNA was triazol extracted, sequenced (Illumina HiSeq2000), mapped against the human genome (hg19) with Tophat2 using Ensembl GRCh37 gene annotations. Human and mouse reads from tumor samples were parsed with BBSplit and unique reads were mapped. Htseq-count was used for exon alignment and DESeq2 for differential expression. Gene set enrichment analysis (GSEA) was performed on genes with padj<0.05 and fold change≥1.6 for cell samples and padj<0.05 for tumor samples.
as §2

LREX′ cells [5] = experiment: Cytotoxicity / proliferation in LREX′ cells (WST-1); assay type: cell-based; settings: with or without 1 nM DHT, 100 nM dex, or both
Text: as §4

[6] = Plasma concentration of ARE-1 in LREX′ tumor bearing SCID mice; assay type: in vivo; settings: 2.5 mg/kg, terminal blood samples, linear trapezoidal method
Description: as §2, §3

LREX′ cells [7] = experiment: RNAseq GSEA (Hallmark pathways) in LREX′ cells; assay type: cell-based, human
Description: as §5

VCaP xenografts [8] = experiment: VCaP xenografts in intact male SCID mice; assay type: in vivo
Description: as §2

[9] = tested on: nascent RNA in LREX′ cells; experiment: Nascent RNA measurement (5-EU incorporation) in LREX′ cells; assay type: cell-based
Description: LREX′ cells were plated at 100,000 cells/mL in 96 well plates in RPMI 1640 (20% FBS and 1 μM enz), adhered for 24 hours, dosed with ARE-1, incubated for 48 hours. The Click-iT® RNA Alexa Fluor® 488 HCS kit was used for dye conjugation and incorporation of 5-ethynyl uridine (5-EU) was measured on a Flexstation 3 plate reader.
LREX′ cells were plated at 100,000 cells/mL in 175 cm^2 flasks, adhered 24 hours, incubated with 10 μM ARE-1 24, 48, and 72 hours, then with 300 μM 5-EU in fresh media. Cells were detached by Accumax or Accutase, and Alexa Fluor® 488 azide dye was conjugated. Cells were passed through 35 μm mesh prior to flow, sorted on a FACSCalibur instrument (Beckman-Dickinson), analyzed using FlowJo.

VCaP xenografts [10] = settings: 10 mg/kg enzalutamide treatment; cited from earlier work

CC(=O)N[C@H](CCNC(=O)c1cc(NC(=O)c2cc(NC(=O)c3cc(NC(=O)c4nccn4C)cn3C)cn2C)cn1C)C(=O)Nc1cn(C)c(C(=O)Nc2cc(C(=O)Nc3cc(C(=O)Nc4cc(C(=O)NCCCN(C)CCCNC(=O)c5cccc(C(=O)O)c5)n(C)c4)n(C)c3)n(C)c2)n1 [ARE-1]
reduction of dex induced transcription ([1]; 100 nM dex, ARE-1 compared with enzalutamide): the opposite was observed with dex induction
KLK3 and HOMER2 expression ([1]; 10 μM ARE-1): represses KLK3 and HOMER2 expression
NES HALLMARK APOPTOSIS (LNCaP cells): 2.323
NES HALLMARK INTERFERON GAMMA RESPONSE (LNCaP cells): 3.06
NES HALLMARK P53 PATHWAY (LNCaP cells): 3.749
NES HALLMARK TNFA SIGNALING VIA NFKB (LNCaP cells): 3.248
AUC (plasma) ([2]; 30 mg/kg subcutaneously, C57BL6/J mice, linear trapezoidal method): 189.9 µg·h/mL
time to recovery from weight loss ([2]; 30 mg/kg, mice): ≤ 5 days
visible signs of distress ([2]; 30 mg/kg, mice): without visible signs of distress
weight loss ([2]; 30 mg/kg, mice): 6%
host toxicity ([3]; LNCaP xenografts): minimal host toxicity
efficacy against LNCaP xenografts [3]: effective against hormone sensitive LNCaP xenografts
agonist activity (KLK3 mRNA) [4]: no agonist activity
baseline expression of KLK3 ([4]; charcoal stripped media): reduced baseline expression of KLK3
proliferation of LNCaP/AR cells (LNCaP/AR cells): reduced proliferation of LNCaP/AR cells more than bicalutamide
long-term cell viability in VCaP cells (VCaP cells; long-term incubation, cell counting, compared with enzalutamide): more potent than enzalutamide and insensitive to GR activation
proliferation of VCaP cells (VCaP cells; with or without 1 nM DHT, 100 nM dex, or both): reduced proliferation
Nes ADENYL NUCLEOTIDE BINDING (LREX′ tumors): −4.22
Nes CELL PROJECTION ORGANIZATION (LREX′ tumors): −3.813
Nes CELLULAR AMIDE METABOLIC PROCESS (LREX′ tumors): 4.725
Nes CHROMATIN BINDING (LREX′ tumors): −3.786
Nes DOUBLE STRANDED DNA BINDING (LREX′ tumors): −4.074
Nes MACROMOLECULAR COMPLEX BINDING (LREX′ tumors): −3.726
Nes MITOCHONDRIAL ENVELOPE (LREX′ tumors): 5.17
Nes MITOCHONDRIAL PART (LREX′ tumors): 5.946
Nes MITOCHONDRION (LREX′ tumors): 6.585
Nes MITOCHONDRION ORGANIZATION (LREX′ tumors): 4.686
Nes NUCLEIC ACID BINDING TRANSCRIPTION FACTOR ACTIVITY (LREX′ tumors): −5.598
Nes ORGANELLE INNER MEMBRANE (LREX′ tumors): 4.922
Nes ORGANONITROGEN COMPOUND BIOSYNTHETIC PROCESS (LREX′ tumors): 4.815
Nes ORGANONITROGEN COMPOUND METABOLIC PROCESS (LREX′ tumors): 5.958
Nes REGULATION OF TRANSCRIPTION FROM RNA POLYMERASE II PROMOTER (LREX′ tumors): −4.438
Nes REGULATORY REGION NUCLEIC ACID BINDING (LREX′ tumors): −4.775
Nes RIBOSOME (LREX′ tumors): 4.779
Nes SEQUENCE SPECIFIC DNA BINDING (LREX′ tumors): −4.99
Nes STRUCTURAL CONSTITUENT OF RIBOSOME (LREX′ tumors): 4.741
Nes ZINC ION BINDING (LREX′ tumors): −3.923
proliferation of LREX′ cells (LREX′ cells [5]): reduced proliferation
AUC (plasma) [6]: 25.9 µg·h/mL
NES HALLMARK APICAL JUNCTION (LREX′ cells [7]; LREX′ DHT + ARE-1/DHT): −2.198
NES HALLMARK DNA REPAIR (LREX′ cells [7]; LREX′ DHT + ARE-1/DHT): 2.055
NES HALLMARK INTERFERON GAMMA RESPONSE (LREX′ cells [7]; LREX′ DHT + ARE-1/DHT): 2.028
NES HALLMARK MITOTIC SPINDLE (LREX′ cells [7]; LREX′ DHT + ARE-1/DHT): −2.302
NES HALLMARK MYC TARGETS V1 (LREX′ cells [7]; LREX′ DHT + ARE-1/DHT): 2.006
NES HALLMARK OXIDATIVE PHOSPHORYLATION (LREX′ cells [7]; LREX′ DHT + ARE-1/DHT): 2.738
NES HALLMARK PROTEIN SECRETION (LREX′ cells [7]; LREX′ DHT + ARE-1/DHT): −2.402
NES HALLMARK UV RESPONSE UP (LREX′ cells [7]; LREX′ DHT + ARE-1/DHT): 2.173
toxicity (animal weights) (VCaP xenografts [8]; VCaP tumor bearing animals treated with ARE-1): without significant toxicity
reduction of tumor growth compared to vehicle (VCaP xenografts [8]; VCaP xenografts, 5 mg/kg ARE-1 subcutaneously three times per week): 70%
nascent RNA (5-EU incorporation) [9]: reduced nascent RNA in LREX′ cells

C[C@]12CCC(=O)C[C@@H]1CC[C@@H]1[C@@H]2CC[C@]2(C)[C@@H](O)CC[C@@H]12 [DHT, dihydrotestosterone, reference compound]
NES HALLMARK ANDROGEN RESPONSE (LREX′ cells [7]; LREX′ DHT/NT): 5.031
NES HALLMARK MYC TARGETS V1 (LREX′ cells [7]; LREX′ DHT/NT): −1.861
NES HALLMARK MYC TARGETS V2 (LREX′ cells [7]; LREX′ DHT/NT): −1.81
NES HALLMARK OXIDATIVE PHOSPHORYLATION (LREX′ cells [7]; LREX′ DHT/NT): −2.126
NES HALLMARK PROTEIN SECRETION (LREX′ cells [7]; LREX′ DHT/NT): 2.849
NES HALLMARK TNFA SIGNALING VIA NFKB (LREX′ cells [7]; LREX′ DHT/NT): 2.751
NES HALLMARK UV RESPONSE DOWN (LREX′ cells [7]; LREX′ DHT/NT): 2.496

CNC(=O)c1ccc(N2C(=S)N(c3ccc(C#N)c(C(F)(F)F)c3)C(=O)C2(C)C)cc1F [enzalutamide, reference compound]
reduction of DHT induced transcription ([1]; 1 nM DHT, enzalutamide compared with ARE-1): more potent than ARE-1 in reducing DHT induced transcription
response of VCaP xenografts (VCaP xenografts [10]): modest response
agonist activity (KLK3 mRNA) [4]: no agonist activity
